Read-outs that look alike come from different tables or passages of the source. One block for each molecule: values may come before it.
What was measured:
[1] = test system: GCS mRNA; test: Northern blot of GCS mRNA expression in MCF-7/GCS cells; assay type: cell-based, human
Description: (A) Northern Blot showing regulated expression of GCS mRNA in MCF-7 and MCF-7/GCS cells incubated with the indicated concentrations of doxycycline (dox, μg/ml). Total RNA per lane was 15 micrograms. Ethidium bromide-stained RNA (28 S) was used as a control for even loading. Densities of GCS/28 S RNA (×100) in MCF-7/GCS cells were 16, 18, 97, 256 at 0, 0.1, 1.0 and 3.0 μg/ml doxycycline, respectively. (B) Dose-response of GCS activity to doxycycline. Cells were incubated for 96 hr in medium containing the indicated concentrations of doxycycline. GCS activity was analyzed by radioenzymatic assay. * p<0.01, **p<0.001 compared with MCF-7 cells. (C) Doxycycline-induced resistance to ceramide. Cells were pretreated with the indicated concentrations of doxycycline for 48 hr, seeded in 96-well plates, and treated the following day with 5 μM C6ceramide in RPMI-1640 medium containing 5% FBS. Cell viability was determined after 96 hr. Data represent the mean ±SD of six replicates from two independent experiments. Control cells were cultured in medium without C6-ceramide. * p<0.001 compared to MCF-7 cells; **p<0.001, compared to MCF-7 cells exposed to 1.0 μg/ml doxycycline.
RNA Analysis. RNA was extracted from cells using the single-step method described by Chomczynski and Sacchi (Chomczynski, 1987). Equal amounts of total RNA (15 μg) were denatured in 59% formamide/2.2 M formaldehyde, size separated by electrophoresis on 1% agarose-formaldehyde, and then blotted onto nitrocellulose-plus (Sambrook, 1989). GCS cDNA was prepared from pCG-2 plasmid, digested with EcoR I, and Hind III (Stratagene, La Jolla, Calif.). […]
If ceramide resistance is induced by GCS expression in MCF-7/GCS cells, the resistance response should be tightly correlated with the level of the inducer, doxycycline. It was determined that increasing doxycycline concentrations correlated closely with increased expression of GCS, which in turn correlated well with increased resistance of the cells to C6ceramide. […]

[2] = test system: glucosylceramide synthase; test: Glucosylceramide synthase radioenzymatic assay on microsomes of Tet-on GCS-transfected clones; assay type: cell-based, human
Description: Glucosylceramide Synthase Assay. To determine the expression of GCS in the hygromycin-resistant clones, a modified radioenzymatic assay was utilized (Lavie, 1997; Shukla, 1990). After incubation in the absence or presence of doxycycline (3 μg/ml, 48 hr), cells were homogenized by sonication in lysis buffer (50 mM Tris-HCl, pH 7.4, 1.0 μg/ml leupeptin, 10 μg/ml aprotinin, 25 μM PMSF). Microsomes were isolated by centrifugation (129,000×g, 60 min). The enzyme assay, containing 50 μg microsomal protein, in a final volume of 0.2 ml, was performed in a shaking water bath at 37° C. for 60 min. The reaction contained liposomal substrate composed of C6-ceramide (1.0 mM), phosphatidylcholine (3.6 mM, MW 786.15), and brain sulfatides (0.9 mM, MW 563). The liposomal substrate was prepared by mixing the components, evaporating the solvents under a stream of nitrogen, and sonicating in water over ice for 1-min using a microtip at 50% output (Kontes, Micro Ultrasonic Cell Disrupter). Other reaction components included sodium phosphate buffer (0.1 M) pH 7.8, EDTA (2.0 mM), MgCl2 (10 mM), dithiothreitol (1.0 mM), β-NAD (2.0 mM), and [^3H]UDP-glucose (0.5 mM). Radiolabeled and unlabeled UDP-glucose were diluted to achieve the desired radiospecific activity (4,700 dpm/nmol). To terminate the reaction, tubes were placed on ice and 0.5 ml isopropanol and 0.4 ml Na2SO4 were added. After brief vortex mixing, 3 ml t-butyl methyl ether was added and the tubes were mixed for 30 sec. After centrifugation, 0.5 ml upper phase which contained GC, was withdrawn and mixed with 4.5 ml EcoLume for analysis of radioactivity by liquid scintillation spectroscopy.
After co-transfection of pTRE-GCS and pTK-Hyg into clone 1 and clone 16 of MCF-7 Tet-on cells, 65 hygromycin-resistant clones were selected. […] Compared with a basal level of 17.2±0.1 pmol GC in MCF-7 wt cells, doxycycline-induced GCS activity in MCF-7/GCS12, […] and MCF-7/GCS14 was to 167.4±17.2, 183.3±12.4, and 90.2±2.76 pmol GC, respectively (FIG. 13A). There were no differences in either basal or doxycycline-induced GCS activity in transfection control cells (TC) or in the basal level of GCS in MCF-7 wt cells (FIG. 13A). In MCF-7/GCS13 and MCF-7/GCS14, the doxycycline-inducible GCS activities were 1.6-fold and 4.1-fold, respectively, above untreated cells. The MCF-7/GCS14 clone was designated MCF-7/GCS, and this clone was used in further experiments.

[3] = test system: MCF-7-wt cells; test: Cytotoxicity assay (Promega) in chemosensitive wild-type breast cancer cells; assay type: cell-based, human; settings: C6-ceramide at increasing concentrations, 72 hr
[4] = test system: MCF-7 cells; test: cells; assay type: cell-based; settings: Homo sapiens, MCF7, 96 h, read-out: EC50 (cytotoxicity)
Description: (§1) Cytotoxicity Assay. The assay was performed as previously described (Lavie, 1997). […] Cultures were incubated at 37° C. for 24 hr before addition of drug. Drugs were added in FBS-free medium (0.1 ml), and cells were cultured at 37° C. for the indicated periods. Drug cytotoxicity was determined using the Promega 96 Aqueous cell proliferation assay kit. Absorbance at 490 nm was recorded using an ELISA reader (Molecular Devices, San Diego, Calif.).
(§2) Adriamycin was used to assess the influence of GCS transfection on cellular response to anthracyclines. After pretreatment with doxycycline for two days, MCF-7/GCS cells were incubated with increasing concentrations of adriamycin for four days. […] It was observed that MCF-7/GCS cells were resistant to ceramide toxicity as well. […] However, the EC50 in the TC group was nearly identical with that of MCF-7 cells, there being no statistical difference between the two groups (FIG. 14C).

[5] = test system: MCF-7-AdrR cells; test: cells; settings: Homo sapiens, read-out: cell viability
[6] = test system: MCF-7/GCS cells; assay type: cell-based, human; settings: MCF-7/GCS vs MCF-7
Description: as §1, §2

[7] = test system: MCF-7-AdrR cells; test: Cell radiolabeling and TLC/LSC analysis of ceramide, glucosylceramide and sphingomyelin in MDR breast cancer cells; assay type: cell-based, human; settings: adriamycin 2.5, PSC 833 5.0 μM, tamoxifen 5.0 μM alone or combined, 24 h, [3H]palmitic acid
Description: Cells. Experiments were conducted using the human MDR breast cancer cell line, MCF-7 AdrR (adriamycin resistant) provided by Drs. Kenneth H. Cowan and Merrill E. Goldsmith, National Cancer Institute. Cells were grown in RPMI-1640 medium containing 10% FBS (fetal bovine serum) and antibiotics as previously described (Lavie, 1997) and cultures were maintained in a humidified 6.5% CO2 atmosphere incubator. Trypsin (0.05%) and EDTA (0.5 mM) were used for subculture. Plastic tissue cultureware, was from Costar (96-well plates) and Corning (6-well plates, 6-cm dishes, T-75 flasks). Limited experiments were conducted using the human MDR epidermoid carcinoma cell line, KBV-1, provided by Dr. Michael M. Gottesman, National Cancer Institute. Cells were maintained as described (Lavie, 1996). Vinblastine was eliminated from the culture medium during the experiments.
Cell Radiolabeling and Lipid/Glycolipid Analysis. To follow lipid metabolism, cells were grown in the presence of tritiated ceramide precursors, L-[^3H]serine (20 Ci/mmol) (American Radiolabeled Chemicals, Inc., St. Louis), and [9, 10-^3H]palmitic acid (50 Ci/mmol) (DuPont NEN). Labeling media were prepared by adding microliter amounts of tritiated compounds (supplied in ethanol or sterile water) to medium containing only 5% FBS. After radiolabeling, 0.1 ml aliquots of medium were removed and analyzed by LSC (Lavie, 1997), in order to determine cellular uptake of the tritiated compounds. Cell monolayers were then rinsed twice with cold phosphate-buffered saline. Ice cold methanol containing 2% acetic acid was added, and cells were scraped free of the substratum (plastic scraper) for lipid extraction using chloroform and water in 1-dram glass vials as described (Lavie, 1997; Lavie, 1996; Bligh and Dyer, 1959). After centrifugation, the resulting organic lower phase of the biphasic extraction was withdrawn, transferred to a glass vial, and evaporated to dryness under a stream of nitrogen.
Radioactivity in glucosylceramide was analyzed by TLC resolution of total lipids (Silica Gel G) using a solvent system containing chloroform/methanol/ammonium hydroxide (80:20:2, v/v/v). Migration of glucosylceramide on TLC was compared with that of commercial standard (glucocerebrosides, Gaucher's spleen, Matreya, Inc., Pleasant Gap, Pa.), and lipid spots, after iodine vapor visualization, were scraped for tritium quantitation by LSC (Lavie, 1997; Lavie, 1996). […] Ceramide and sphingomyelin commercial standards (brain-derived) were from Avanti Polar Lipids, Alabaster, Ala. After iodine visualization of lipids, areas of the chromatogram corresponding to ceramide and sphingomyelin were scraped into minivials containing 0.5 ml water followed by 4.5 ml EcoLume (ICN, Costa Mesa, Calif.), and samples were analyzed for tritium by liquid scintillation spectrometry. Alternative analysis of ceramide consisted of subjecting an aliquot of the total cell lipid extract to mild alkaline hydrolysis (0.1 N KOH in methanol, 1 h at 37° C.) followed by re-extraction (Lavie, 1997). […] The same can also be done without tritium by simply applying 100-200 μg total cell lipid to TLC plates and developing them in the appropriate solvent, then spraying them with 30% H2SO4, charring the plate in an oven at 180° C. for 20 min, and measuring lipid mass by densitometry.

SMILES: C[C@H]1c2cccc(O)c2C(=O)C2=C(O)[C@]3(O)C(=O)C(C(N)=O)=C(O)[C@@H](N(C)C)[C@@H]3[C@@H](O)[C@@H]21.Cl [doxycycline, Doxycycline hydrochloride]
- GCS mRNA density (GCS band/28 S RNA×100) ([1]; doxycycline 0.1 μg/ml): 18
- GCS mRNA density (GCS band/28 S RNA×100) ([1]; doxycycline 1.0 μg/ml): 97
- GCS mRNA density (GCS band/28 S RNA×100) ([1]; doxycycline 3.0 μg/ml): 256
- doxycycline-induced GCS activity ([2]; clone MCF-7/GCS3 (so in the source), doxycycline 3 μg/ml): 183.3±12.4 pmol GC
- doxycycline-induced GCS activity ([2]; clone MCF-7/GCS12, doxycycline 3 μg/ml): 167.4±17.2 pmol GC
- doxycycline-inducible GCS activity above untreated cells ([2]; clone MCF-7/GCS13): 1.6 fold
- doxycycline-inducible GCS activity above untreated cells ([2]; clone MCF-7/GCS14): 4.1 fold
- doxycycline-induced GCS activity ([2]; clone MCF-7/GCS14, doxycycline 3 μg/ml): 90.2±2.76 pmol GC

- EC50 in MCF-7/GCS cells relative to EC50 in MCF-7 cells [6]: 4 fold
- EC50 in MCF-7/GCS cells relative to EC50 in MCF-7 cells ([6]; listed as ceramide): 5 fold
SMILES: CCCCCCCCCCCCC/C=C/[C@@H](O)[C@H](CO)NC(=O)CCCCC [C6-ceramide, N-hexanoylsphingosine]
- cell viability, dose-response [3]: dose dependent decrease in viability
- EC50 [4]: 3.1 ± 0.5 µM
- viability at 10 µM ([5]; 72 h): 84%
- viability at 5 µM [5]: 86%

SMILES: CC/C(=C(\c1ccccc1)c1ccc(OCCN(C)C)cc1)c1ccccc1 [tamoxifen, Tamoxifen]
- ceramide level, increase over control [7]: 0.3 fold
